One test concerns the target T1, human MAO-B (Homo sapiens, UniProt P27338).
T1 construct: expressed in transfected cells; host or cells: EBNA cells (transient transfection), membrane preparation
T1 sequence (P27338 1-520): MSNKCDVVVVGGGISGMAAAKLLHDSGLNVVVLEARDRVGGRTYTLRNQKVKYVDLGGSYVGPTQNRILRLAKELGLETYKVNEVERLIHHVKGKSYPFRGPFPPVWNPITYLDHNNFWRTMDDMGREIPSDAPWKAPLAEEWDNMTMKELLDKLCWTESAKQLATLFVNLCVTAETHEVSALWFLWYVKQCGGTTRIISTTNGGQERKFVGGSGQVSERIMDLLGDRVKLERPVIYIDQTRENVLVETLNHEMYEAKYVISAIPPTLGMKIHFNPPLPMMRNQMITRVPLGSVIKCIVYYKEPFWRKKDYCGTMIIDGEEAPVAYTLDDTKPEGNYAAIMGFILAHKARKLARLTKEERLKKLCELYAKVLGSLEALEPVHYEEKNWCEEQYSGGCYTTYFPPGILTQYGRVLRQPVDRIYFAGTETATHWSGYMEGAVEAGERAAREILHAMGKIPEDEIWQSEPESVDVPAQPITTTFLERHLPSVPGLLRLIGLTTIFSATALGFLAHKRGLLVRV
Nature of the test: MAO-B enzymatic activity, spectrophotometric assay (Amplex Red, tyramine substrate) on membranes of transfected EBNA cells. The test is classed as biochemical. As to conditions: membranes of EBNA cells transfected with human MAO-B cDNA, 30 min preincubation at 37° C., pH 7.4. The method, then: (§1) The cDNA's encoding human MAO-A and MAO-B were transiently transfected into EBNA cells using the procedure described by Schlaeger and Christensen [Cytotechnology 15:1-13 (1998)]. After transfection, cells were homogenised by means of a Polytron homogenizer in 20 mM Tris HCl buffer, pH 8.0, containing 0.5 mM EGTA and 0.5 mM phenylmethanesulfonyl fluoride. Cell membranes were obtained by centrifugation at 45,000×g and, after two rinsing steps with 20 mM Tris HCl buffer, pH 8.0, containing 0.5 mM EGTA, membranes were eventually re-suspended in the above buffer and aliquots stored at −80° C. until use.
(§2) MAO-A and MAO-B enzymatic activity was assayed in 96-well-plates using a spectrophotometric assay adapted from the method described by Zhou and Panchuk-Voloshina [Analytical Biochemistry 253:169-174 (1997)]. Briefly, membrane aliquots were incubated in 0.1 M potassium phosphate buffer, pH 7.4, for 30 min at 37° C. with or without various concentrations of the compounds. After this period, the enzymatic reaction was started by the addition of the MAO substrate tyramine together with 1 U/ml horse-radish peroxidase (Roche Biochemicals) and 80 μM N-acetyl-3,7,-dihydroxyphenoxazine (Amplex Red, Molecular Probes). The samples were further incubated for 30 min at 37° C. in a final volume of 200 μl and absorbance was then determined at a wavelength of 570 nm using a SpectraMax plate reader (Molecular Devices). Background (non-specific) absorbance was determined in the presence of 10 μM clorgyline for MAO-A or 10 μM L-deprenyl for MAO-B.
(§3) IC50 values were determined from inhibition curves obtained using nine inhibitor concentrations in duplicate, by fitting data to a four parameter logistic equation using a computer program.

A further test deals with T2, human MAO-A (Homo sapiens, UniProt P21397).
T2 construct: expressed in transfected cells; host or cells: EBNA cells (transient transfection), membrane preparation
T2 sequence (P21397 1-527): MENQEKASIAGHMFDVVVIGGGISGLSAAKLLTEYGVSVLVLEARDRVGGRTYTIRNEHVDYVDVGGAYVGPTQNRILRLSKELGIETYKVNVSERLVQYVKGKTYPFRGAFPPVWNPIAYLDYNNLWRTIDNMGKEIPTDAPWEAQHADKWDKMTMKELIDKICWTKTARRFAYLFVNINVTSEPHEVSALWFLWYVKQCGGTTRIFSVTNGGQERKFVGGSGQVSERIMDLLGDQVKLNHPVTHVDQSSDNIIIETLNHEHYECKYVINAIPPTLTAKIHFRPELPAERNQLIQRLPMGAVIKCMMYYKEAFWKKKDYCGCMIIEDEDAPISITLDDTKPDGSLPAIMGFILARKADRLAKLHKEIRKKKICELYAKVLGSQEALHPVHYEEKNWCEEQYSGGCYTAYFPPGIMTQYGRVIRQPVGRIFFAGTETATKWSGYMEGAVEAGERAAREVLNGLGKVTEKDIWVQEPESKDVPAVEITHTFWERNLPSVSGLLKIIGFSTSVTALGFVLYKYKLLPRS
The test can be described thus: MAO-A enzymatic activity, spectrophotometric assay (Amplex Red, tyramine substrate) on membranes of transfected EBNA cells. It is filed as biochemical. The following applies: membranes of EBNA cells transfected with human MAO-A cDNA, 30 min preincubation at 37° C., pH 7.4. As for the experimental part:
as §1, §2, §3

A value given as a limit tells only on which side of the number the result lay.

As to `CNC(=O)COc1ccc(OCc2ccccc2F)cc1` [Example 5, 2-[4-(2-Fluoro-benzyloxy)-phenoxy]-N-methyl-acetamide], the IC50 (commonly the concentration that inhibits the measured activity by half) was 0.081 µM on human MAO-B and > 9 µM against human MAO-A.

In the case of `CNC(=O)COc1ccc(OCc2ccc(C#N)cc2)cc1` [Example 3, 2-[4-(4-Cyano-benzyloxy)-phenoxy]-N-methyl-acetamide], the IC50 against human MAO-B amounted to 0.028 µM; against human MAO-A, 2.86 µM.

Turning to `CCC(Oc1ccc(OCc2ccc(C#N)cc2)cc1)C(=O)NC` (racemic) [Example 19, (RS)-2-[4-(4-Cyano-benzyloxy)-phenoxy]-N-methyl-butyramide], the IC50 was 0.074 µM against human MAO-B and > 10 µM against human MAO-A.

In the case of `CNC(=O)COc1ccc(OCc2ccc(Cl)cc2)cc1` [Example 4, 2-[4-(4-Chloro-benzyloxy)-phenoxy]-N-methyl-acetamide], the IC50 against human MAO-B amounted to 0.012 µM; at human MAO-A, 2.44 µM.

`CNC(=O)COc1ccc(OCc2ccccc2)cc1` [Example 2, 2-(4-Benzyloxy-phenoxy)-N-methyl-acetamide]: the results for the IC50 against human MAO-B and against human MAO-A were 0.052 µM and > 10 µM, respectively.

`CCC(Oc1ccc(OCc2cccc(F)c2)cc1)C(=O)NC` (racemic) [Example 17, (RS)-2-[4-(3-Fluoro-benzyloxy)-phenoxy]-N-methyl-butyramide]: the concentration for half-maximal inhibition (IC50) against human MAO-B is 0.056 µM; against human MAO-A it was > 10 µM.

For `NC(=O)COCc1ccc(OCc2cccc(F)c2)cc1` [Example 27, 2-[4-(3-Fluoro-benzyloxy)-benzyloxy]-acetamide], the IC50 at human MAO-B was 0.051 µM; against human MAO-A, > 10 µM.

As for `NC(=O)CCOc1ccc(OCc2cccc(F)c2)cc1` [Example 23, 3-[4-(3-Fluoro-benzyloxy)-phenoxy]-propionamide], the IC50 is 0.044 µM on human MAO-B and > 10 µM on human MAO-A.

In the case of `CNC(=O)OCc1ccc(OCc2cccc(F)c2)cc1` [Example 26, Methyl-carbamic acid 4-(3-fluoro-benzyloxy)-benzyl ester], the IC50 was 0.089 µM against human MAO-B and > 10 µM against human MAO-A.

Regarding `NC(=O)OCCc1ccc(OCc2cccc(F)c2)cc1` [Example 24, Carbamic acid 2-[4-(3-fluoro-benzyloxy)-phenyl]-ethyl ester], the IC50 against human MAO-B is 0.068 µM; on human MAO-A it was > 10 µM.

On to `CNC(=O)C(C)Oc1ccc(OCc2cccc(Cl)c2)cc1` (racemic) [Example 12, (RS)-2-[4-(3-Chloro-benzyloxy)-phenoxy]-N-methyl-propionamide], for which the IC50 is 0.015 µM against human MAO-B and > 10 µM against human MAO-A.

As to `CCC(Oc1ccc(OCc2cccc(Cl)c2)cc1)C(=O)NC` (racemic) [Example 18, (RS)-2-[4-(3-Chloro-benzyloxy)-phenoxy]-N-methyl-butyramide], the figures for the concentration for half-maximal inhibition (IC50) at human MAO-B and at human MAO-A were 0.028 µM and > 10 µM, respectively.

For the compound `CNC(=O)C(C)Oc1ccc(OCc2ccc(C#N)cc2)cc1` (racemic) [Example 14, (RS)-2-[4-(4-Cyano-benzyloxy)-phenoxy]-N-methyl-propionamide], the values for the IC50 against human MAO-B and against human MAO-A were 0.031 µM and > 10 µM, respectively.

As for `CNC(=O)COc1ccc(OCc2cccc(F)c2)cc1` [Example 6, 2-[4-(3-Fluoro-benzyloxy)-phenoxy]-N-methyl-acetamide], the IC50 was 0.021 µM on human MAO-B and > 10 µM on human MAO-A.

As to `CNC(=O)C(C)Oc1ccc(OCc2cccc(F)c2)cc1` (racemic) [Example 11, (RS)-2-[4-(3-Fluoro-benzyloxy)-phenoxy]-N-methyl-propionamide], the IC50 against human MAO-B is 0.031 µM; at human MAO-A, > 10 µM.

As to `CNC(=O)C(C)Oc1ccc(OCc2cccc(Cl)c2)cc1` (single isomer, unassigned) [Example 13, (S or R)-2-[4-(3-Chloro-benzyloxy)-phenoxy]-N-methyl-propionamide], the IC50 on human MAO-B was 0.009 µM; on human MAO-A, > 10 µM.

Turning to `CNC(=O)COc1ccc(OCc2ccc(F)cc2)cc1` [Example 7, 2-[4-(4-Fluoro-benzyloxy)-phenoxy]-N-methyl-acetamide], the figures for the IC50 against human MAO-B and at human MAO-A were 0.009 µM and 5.4 µM, respectively.

(Values after patent publication US7253318B2, “Benzyloxy derivatives as MAOB inhibitors” (Hoffman-La Roche Inc., priority 2004, dated 2007).)
